Results from US9745310B2 (SK BIOPHARMACEUTICALS CO., LTD., priority 2015, dated 2017).

Target: human mGluR5 receptor (Homo sapiens (Human), UniProt P41594)
Experiment: Calcium influx assay based on fluorescence (mGluR5 PAM activity)
Details: human mGluR5 receptor-overexpressed HEK293 cell line; L-glutamate EC20; Fluo-4, FLIPR
Protocol: Efficacy as a positive allosteric modulator (PAM) of mGluR5 of the compounds of the Examples was tested as follows:
Calcium Influx Assay Based on Fluorescence
Ca^2+ (calcium) influx assay is an experiment for measuring the activity of a positive allosteric modulator of mGluR5 receptor in which human mGluR5 receptor-overexpressed HEK293 cell line is used. The day before the experiment, cells were prepared in a cell culture medium (DMEM, 5% FBS) with the density of 80,000/well, and 100 μl of cells were dispensed into each well of a poly-D-lysine-coated 96-well plate. Cells were incubated in a 5% CO2, 37° C. incubator. The next day, the cell culture medium was removed from the plate, and 100 μl of 1× Fluo-4 calcium indicator diluted with a buffer (1× Hank's balanced salt solution, 20 mM HEPES, 2.5 mM probenecid) were added to each well and incubated at 37° C. for 1 hour. The compound stock solutions were prepared in 100% DMSO, and the compounds were serially diluted with a ¼ dilution to 6 or 7 concentrations (final concentration was 10 μM to 10 nM). The diluted compound solutions were added to the plate with 0.1 to 0.2% of final DMSO concentration. 1 hour after the addition of Fluo-4 calcium indicator, L-glutamate (EC20 concentration) and the test compound solutions were added to the plate, and Ca^2+ reaction was then measured by FLIPR at room temperature. The activity of the compounds was standardized on the basis of the results of maximum value-minimum value of fluorescent reaction, and the activity value was calculated on the basis that no activity on glutamate EC20 is 0% and the reaction to glutamate maximum value is 100%.

human mGluR5 receptor, sequence (P41594 21-1212): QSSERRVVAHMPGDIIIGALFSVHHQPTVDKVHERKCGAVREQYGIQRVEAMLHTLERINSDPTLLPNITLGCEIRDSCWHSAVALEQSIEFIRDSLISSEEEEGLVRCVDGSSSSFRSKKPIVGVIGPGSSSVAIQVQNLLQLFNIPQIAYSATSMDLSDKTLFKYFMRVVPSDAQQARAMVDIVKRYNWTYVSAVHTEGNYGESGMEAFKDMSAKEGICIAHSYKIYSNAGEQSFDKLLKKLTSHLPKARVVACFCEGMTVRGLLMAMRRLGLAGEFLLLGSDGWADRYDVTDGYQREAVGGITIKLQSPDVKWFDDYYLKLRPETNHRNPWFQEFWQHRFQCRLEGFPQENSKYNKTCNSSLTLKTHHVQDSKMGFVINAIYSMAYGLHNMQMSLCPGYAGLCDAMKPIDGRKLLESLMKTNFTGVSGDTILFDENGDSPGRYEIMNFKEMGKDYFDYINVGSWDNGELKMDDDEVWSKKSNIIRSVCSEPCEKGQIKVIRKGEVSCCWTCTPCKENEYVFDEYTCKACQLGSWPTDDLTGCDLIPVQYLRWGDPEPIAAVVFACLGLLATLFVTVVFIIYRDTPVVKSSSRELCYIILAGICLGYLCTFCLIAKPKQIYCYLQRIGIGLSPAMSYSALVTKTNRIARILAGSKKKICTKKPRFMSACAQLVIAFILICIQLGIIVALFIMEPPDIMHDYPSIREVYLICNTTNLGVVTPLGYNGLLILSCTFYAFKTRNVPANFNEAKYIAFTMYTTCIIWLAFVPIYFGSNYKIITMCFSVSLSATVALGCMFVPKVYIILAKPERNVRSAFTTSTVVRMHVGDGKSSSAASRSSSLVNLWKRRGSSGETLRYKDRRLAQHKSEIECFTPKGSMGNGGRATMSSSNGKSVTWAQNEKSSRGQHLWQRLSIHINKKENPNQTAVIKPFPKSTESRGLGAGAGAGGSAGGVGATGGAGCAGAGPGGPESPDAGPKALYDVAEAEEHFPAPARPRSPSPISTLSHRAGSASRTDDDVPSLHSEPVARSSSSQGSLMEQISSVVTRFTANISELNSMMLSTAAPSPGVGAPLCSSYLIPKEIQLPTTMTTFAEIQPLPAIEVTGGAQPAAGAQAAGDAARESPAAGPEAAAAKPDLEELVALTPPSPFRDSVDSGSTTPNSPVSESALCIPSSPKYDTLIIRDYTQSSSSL

EC50 | Compound
100 to 500 nM | Fc1ccc(-c2cnc3nc(COc4ccccc4)cn3c2)c(C(F)(F)F)c1 [Example 18, 6-(4-fluoro-2-trifluoromethylphenyl)-2-phenoxymethylimidazo[1,2-a]pyrimidine]
500 to 1000 nM | Fc1ccc(-c2cnc3nc(COc4ccccc4)cn3c2)cc1F [Example 19, 6-(3,4-difluorophenyl)-2-phenoxymethylimidazo[1,2-a]pyrimidine]
100 to 500 nM | Fc1ccc(OCc2cn3cc(-c4ccc(C(F)(F)F)nc4)cnc3n2)cc1 [Example 65, 2-[(4-fluorophenoxy)methyl]-6-[6-(trifluoromethyl)-3-pyridyl]imidazo[1,2-a]pyrimidine]
100 to 500 nM | COc1cc(C#N)ccc1-c1cnc2nc(COc3cccc(F)c3)cn2c1 [Example 95, 4-[2-[(3-fluorophenoxy)methyl]imidazo[1,2-a]pyrimidin-6-yl]-3-methoxy-benzonitrile]
100 to 500 nM | Cc1ccc(N)c(-c2cnc3nc(COc4ccc(F)cc4)cn3c2)c1 [Example 76, 2-[2-[(4-fluorophenoxy)methyl]imidazo[1,2-a]pyrimidin-6-yl]-4-methyl-aniline]
100 to 500 nM | Cc1cc(F)ccc1-c1cnc2nc(COc3ccccn3)cn2c1 [Example 106, 6-(4-fluoro-2-methylphenyl)-2-(pyridin-2-yloxymethyl)imidazo[1,2-a]pyrimidine]
100 to 500 nM | COc1c(F)cccc1-c1cnc2nc(COc3ccccn3)cn2c1 [Example 112, 6-(3-fluoro-2-methoxy-phenyl)-2-(2-pyridyloxymethyl)imidazo[1,2-a]pyrimidine]
500 to 1000 nM | COc1cc(-c2cnc3nc(COc4ccccc4)cn3c2)c(F)cc1F [Example 28, 6-(2,4-difluoro-5-methoxyphenyl)-2-phenoxymethylimidazo[1,2-a]pyrimidine]
500 to 1000 nM | Cc1ccc(-c2cnc3nc(COc4ccc(F)cn4)cn3c2)c(C)c1 [Example 128, 6-(2,4-dimethylphenyl)-2-[(5-fluoro-2-pyridyl)oxymethyl)imidazo[1,2-a]pyrimidine]
100 to 500 nM | Fc1ccc(-c2cnc3nc(COc4cc(F)ccn4)cn3c2)cc1 [Example 123, 6-(4-fluorophenyl)-2-[(4-fluoro-2-pyridyl)oxymethyl)imidazo[1,2-a]pyrimidine]
100 to 500 nM | Cc1cc(-c2cnc3nc(COc4ccccc4)cn3c2)cnc1F [Example 39, 6-(6-fluoro-5-methyl-3-pyridyl)-2-phenoxymethylimidazo[1,2-a]pyrimidine]
500 to 1000 nM | Clc1ccc(-c2cnc3nc(COc4ccccc4)cn3c2)cc1 [Example 37, 6-(4-chlorophenyl)-2-phenoxymethylimidazo[1,2-a]pyrimidine]
100 to 500 nM | Cc1ccncc1-c1cnc2nc(COc3cccc(F)c3)cn2c1 [Example 46, 6-(4-methylpyridin-3-yl)-2-(3-fluorophenoxymethyl)imidazo[1,2-a]pyrimidine]

Further lines, the molecule ahead of its results:

Compound | EC50
Fc1cccc(OCc2cn3cc(-c4cccnc4F)cnc3n2)c1 [Example 82, 2-[(3-fluorophenoxy)methyl]-6-(2-fluoro-3-pyridyl)imidazo[1,2-a]pyrimidine] | 100 to 500 nM
Nc1ccccc1-c1cnc2nc(COc3ccccc3)cn2c1 [Example 10, 6-(2-aminophenyl)-2-phenoxymethylimidazo[1,2-a]pyrimidine] | 100 to 500 nM
CN(C)c1ccccc1-c1cnc2nc(COc3ccccc3)cn2c1 [Example 14, 6-(2-dimethylaminophenyl)-2-phenoxymethylimidazo[1,2-a]pyrimidine] | 100 to 500 nM
Fc1cccc(OCc2cn3cc(-c4ccc(F)nc4F)cnc3n2)c1 [Example 71, 6-(2,6-difluoro-3-pyridyl)-2-[(3-fluorophenoxy)methyl]imidazo[1,2-a]pyrimidine] | 100 to 500 nM
CCc1ccccc1-c1cnc2nc(COc3ccccn3)cn2c1 [Example 115, 6-(2-ethylphenyl)-2-(2-pyridyloxymethyl)imidazo[1,2-a]pyrimidine] | 100 to 500 nM
CSc1cc(F)ccc1-c1cnc2nc(COc3ccc(F)cc3)cn2c1 [Example 98, 6-(4-fluoro-2-methylsulfanyl-phenyl)-2-[(4-fluorophenoxy)methyl]imidazo[1,2-a]pyrimidine] | 100 to 500 nM
COc1ccc(-c2cnc3nc(COc4ccccc4)cn3c2)cn1 [Example 30, 6-(6-methoxypyridin-3-yl)-2-phenoxymethylimidazo[1,2-a]pyrimidine] | 500 to 1000 nM
Cc1cc(F)ccc1-c1cnc2nc(COc3ccc(F)cc3)cn2c1 [Example 48, 6-(4-fluoro-2-methylphenyl)-2-(4-fluorophenoxymethyl)imidazo[1,2-a]pyrimidine] | 100 to 500 nM
Fc1ccc(-c2cnc3nc(COc4ccccc4)cn3c2)cn1 [Example 31, 6-(6-fluoropyridin-3-yl)-2-phenoxymethylimidazo[1,2-a]pyrimidine] | 100 to 500 nM
Oc1cc(F)ccc1-c1cnc2nc(COc3ccc(F)cc3)cn2c1 [Example 58, 5-fluoro-2-[2-[(4-fluorophenoxy)methyl]imidazo[1,2-a]pyrimidin-6-yl]phenol] | 100 to 500 nM
Nc1cc(-c2cnc3nc(COc4ccc(F)cc4)cn3c2)ccc1F [Example 70, 2-fluoro-5-[2-[(4-fluorophenoxy)methyl]imidazo[1,2-a]pyrimidin-6-yl]aniline] | 100 to 500 nM
COc1cc(C#N)ccc1-c1cnc2nc(COc3ccccc3)cn2c1 [Example 23, 6-(4-cyano-2-methoxyphenyl)-2-phenoxymethylimidazo[1,2-a]pyrimidine] | 100 to 500 nM
Fc1ccc(-c2cnc3nc(COc4ccc(F)cn4)cn3c2)cc1 [Example 129, 6-(4-fluorophenyl)-2-[(5-fluoro-2-pyridyl)oxymethyl)imidazo[1,2-a]pyrimidine] | 500 to 1000 nM
COc1cc(F)ccc1-c1cnc2nc(COc3cccc(F)c3)cn2c1 [Example 42, 6-(4-fluoro-2-methoxyphenyl)-2-(3-fluorophenoxymethyl)imidazo[1,2-a]pyrimidine] | 500 to 1000 nM
O=Cc1ccc(-c2cnc3nc(COc4ccccn4)cn3c2)c(C(F)(F)F)c1 [Example 144, 4-[2-(2-pyridyloxymethyl)imidazo[1,2-a]pyrimidin-6-yl]-3-(trifluoromethyl)benzaldehyde] | 500 to 1000 nM
CSc1cc(F)ccc1-c1cnc2nc(COc3ccccn3)cn2c1 [Example 138, 6-(4-fluoro-2-methylsulfanyl-phenyl)-2-(2-pyridyloxymethyl)imidazo[1,2-a]pyrimidine] | 100 to 500 nM
Fc1ccc(-c2cnc3nc(COc4ccccn4)cn3c2)cc1 [Example 102, 6-(4-fluorophenyl)-2-(pyridin-2-yloxymethyl)imidazo[1,2-a]pyrimidine] | 100 to 500 nM
Fc1ccc(-c2cnc3nc(COc4ccncc4)cn3c2)c(F)c1 [Example 152, 6-(2,4-difluorophenyl)-2-(pyridin-4-yloxymethyl)imidazo[1,2-a]pyrimidine] | 100 to 500 nM
Fc1ccnc(OCc2cn3cc(-c4cccc(F)c4F)cnc3n2)c1 [Example 122, 6-(2,3-difluorophenyl)-2-[(4-fluoro-2-pyridyl)oxymethyl)imidazo[1,2-a]pyrimidine] | 500 to 1000 nM
Fc1ccc(-c2cnc3nc(COc4ccccc4)cn3c2)c(F)n1 [Example 33, 6-(2,6-difluoropyridin-3-yl)-2-phenoxymethylimidazo[1,2-a]pyrimidine] | 100 to 500 nM
Fc1cc(-c2cnc3nc(COc4ccccc4)cn3c2)ccn1 [Example 35, 6-(2-fluoropyridin-4-yl)-2-phenoxymethylimidazo[1,2-a]pyrimidine] | 100 to 500 nM
COc1cc(C#N)ccc1-c1cnc2nc(COc3ccccn3)cn2c1 [Example 136, 3-methoxy-4-[2-(2-pyridyloxymethyl)imidazo[1,2-a]pyrimidin-6-yl]benzonitrile] | 500 to 1000 nM
OCc1cc(F)ccc1-c1cnc2nc(COc3cccc(F)c3)cn2c1 [Example 96, [5-fluoro-2-[2-[(3-fluorophenoxy)methyl]imidazo[1,2-a]pyrimidin-6-yl]phenyl]methanol] | 100 to 500 nM
Cc1cc(F)ccc1-c1cnc2nc(COc3ccc(F)cn3)cn2n1 [Example 192, 2-(4-fluoro-2-methyl-phenyl)-6-[(5-fluoro-2-pyridyl)oxymethyl]imidazo[1,2-b][1,2,4]triazine] | 100 to 500 nM
COc1ccc(-c2cnc3nc(COc4ccc(F)cc4)cn3c2)nc1 [Example 86, 2-[(4-fluorophenoxy)methyl]-6-(5-methoxy-2-pyridyl)imidazo[1,2-a]pyrimidine] | 100 to 500 nM
Cc1ccccc1-c1cnc2nc(COc3ccccn3)cn2c1 [Example 103, 6-(2-methylphenyl)-2-(pyridin-2-yloxymethyl)imidazo[1,2-a]pyrimidine] | 100 to 500 nM
Cc1ccccc1-c1cnc2nc(COc3cncc(F)c3)cn2c1 [Example 153, 6-(2-methylphenyl)-2-(5-fluoro-pyridin-3-yloxymethyl)imidazo[1,2-a]pyrimidine] | 100 to 500 nM
Oc1ccc(-c2cnc3nc(COc4ccc(F)cc4)cn3c2)cn1 [Example 90, 5-[2-[(4-fluorophenoxy)methyl]imidazo[1,2-a]pyrimidin-6-yl]pyridin-2-ol] | 100 to 500 nM
